Data reported in publication PMC8713283 (Journal of Medicinal Chemistry, 2021).
Several values for one entry are separate records, joined by “and”; a condition that tells them apart may be missing. Equal entries are not always repeated.

Columns and labels:
[1] = Log D(dec/w) shake flask partition coefficient; assay type: physicochemical; settings: 1,9-decadiene/PBS; 1,9-decadiene and PBS pH 7.4 shake flask partition coefficient
[2] = LPEester – LPEamide by amide–ester matched pairs
[3] = human
in vitro = settings: PAMPA
P-gp (human MDR1) = experiment: in vitro; settings: dog; for Papp A→B at 5 µM / Papp B→A at 5 µM: MDCK-MDR1; for efflux ratio at 5 µM: MDCK-MDR1, Efflux ratio B-A/A-B, MDCK-MDR1, 5 µM, N = 2
VHL + Brd2BD1 = biological target: T1, VHL + Brd2BD1 (Homo sapiens, UniProt P25440+P40337); experiment: FP competition, ternary binding to VHL with Brd2BD1
T1 construct: His6 (N, cleaved yes); made in house; host or cells: E. coli

VHL + Brd2BD2 = biological target: T2, VHL + Brd2BD2 (Homo sapiens, UniProt P25440+P40337); experiment: FP competition, ternary binding to VHL with Brd2BD2; settings: for ΔpKd: Log10(α) = pKd ternary - pKd binary
T2 construct: Brd2-BD2 (344–455); His6 (N, cleaved yes); made in house; host or cells: E. coli

VHL + Brd3BD2 = biological target: T3, VHL + Brd3BD2 (Homo sapiens, UniProt P40337+Q15059); experiment: FP competition, ternary binding to VHL with Brd3BD2; settings: for ΔpKd: Log10(α) = pKd ternary - pKd binary; for Cooperativity α: α = Kd binary/Kd ternary
T3 construct: Brd3-BD2 (306–416); His6 (N, cleaved yes); made in house; host or cells: E. coli

VHL + Brd4BD2 = biological target: T4, VHL + Brd4BD2 (Homo sapiens, UniProt O60885+P40337); assay type: binding; settings: for ΔpKd: Log10(α) = pKd ternary - pKd binary
T4 construct: Brd4-BD2 (333–460); His6 (N, cleaved yes); made in house; host or cells: E. coli

Brd4 = biological target: T5, Brd4 (Homo sapiens, UniProt O60885); experiment: Western blot degradation of Brd4 in HEK293 cells; assay type: cell-based; settings: HEK293, 4 h, 10 μM, N = 1
T5 construct: endogenous in cells; host or cells: HEK293

Brd2 = biological target: T6, Brd2 (Homo sapiens, UniProt P25440); experiment: Western blot degradation of Brd2 in HEK293 cells; assay type: cell-based
T6 construct: endogenous in cells; host or cells: HEK293

VHL + Brd3BD1 = VHL + Brd3BD1 (Homo sapiens, UniProt P40337+Q15059); settings: for ΔpKd: Log10(α) = pKd ternary - pKd binary; for Cooperativity α: α = Kd binary/Kd ternary
VHL + Brd4BD1 = VHL + Brd4BD1 (Homo sapiens, UniProt O60885+P40337); settings: for ΔpKd: Log10(α) = pKd ternary - pKd binary; for Cooperativity α: α = Kd binary/Kd ternary

| SMILES | logD hydrocarbon water [1] | ΔLPE [2] | Plasma stability [3] | Papp A→B at 5 µM (P-gp (human MDR1)) | Papp B→A at 5 µM (P-gp (human MDR1)) | efflux ratio at 5 µM (P-gp (human MDR1)) | ΔpKd (VHL + Brd2BD2) | ΔpKd (VHL + Brd3BD2) | Cooperativity α (VHL + Brd3BD2) | ΔpKd (VHL + Brd4BD2) | ΔpKd (VHL + Brd3BD1) | Cooperativity α (VHL + Brd3BD1) | ΔpKd (VHL + Brd4BD1) | Cooperativity α (VHL + Brd4BD1) | also measured |
| --- | --- | --- | --- | --- | --- | --- | --- | --- | --- | --- | --- | --- | --- | --- | --- |
| CCCC(=O)OCCCCCC(=O)N[C@H](C(=O)N1C[C@H](O)C[C@H]1C(=O)NCc1ccc(-c2scnc2C)cc1)C(C)(C)C [Compound 9, 6-(((S)-1-((2S,4R)-4-Hydroxy-2-((4-(4-methylthiazol-5-yl)benzyl)carbamoyl)pyrrolidin-1-yl)-3,3-dimethyl-1-oxobutan-2-yl)amino)-6-oxohexyl Butyrate] | -0.5 | 1.1 | 13 ± 1% | 0.9 ×10⁻⁶ cm/s | 47 ×10⁻⁶ cm/s | 55 |  |  |  |  |  |  |  |  | Papp (in vitro): 6.5 ×10⁻⁶ cm/s |
| Cc1ncsc1-c1ccc([C@H](C)NC(=O)[C@@H]2C[C@@H](O)CN2C(=O)[C@@H](NC(=O)COCCCOCCNC(=O)C[C@@H]2N=C(c3ccc(Cl)cc3)c3c(sc(C)c3C)-n3c(C)nnc32)C(C)(C)C)cc1 [Compound 22, ARV-771] |  |  |  |  |  |  | 0.66 | 0.64 | 4.3 | 1.12 | 0.30 | 2.0 | 0.42 | 2.6 | ΔpKd (VHL + Brd2BD1; Log10(α) = pKd ternary - pKd binary): 0.38; Cooperativity α (VHL + Brd2BD1; α = Kd binary/Kd ternary): 2.4; Kd (VHL + Brd2BD2; read-out: pKd ternary (converted)): 7.41 nM; Cooperativity α (VHL + Brd2BD2; α = Kd binary/Kd ternary): 4.6; Cooperativity α (VHL + Brd4BD2; α = Kd binary/Kd ternary): 13; Hook effect, Brd4 protein levels (Brd4): exhibited a hook effect; pDC50 Brd2 (Brd2; HEK293, 4 h, 1 μM to 100 pM, mean ± S.E., three experiments): 6.9 ± 0.2 and 7.4 ± 0.1; DC50 (Brd2; read-out: DC50 Brd2, HEK293 cells): 42 nM |
| COCC(=O)OCCCCCC(=O)N[C@H](C(=O)N1C[C@H](O)C[C@H]1C(=O)NCc1ccc(-c2scnc2C)cc1)C(C)(C)C [Compound 8, 6-(((S)-1-((2S,4R)-4-Hydroxy-2-((4-(4-methylthiazol-5-yl)benzyl)carbamoyl)pyrrolidin-1-yl)-3,3-dimethyl-1-oxobutan-2-yl)amino)-6-oxohexyl 2-methoxyacetate] | -1.7 | -0.2 | 1 ± 0.4% | 0.4 ×10⁻⁶ cm/s | 11 ×10⁻⁶ cm/s | 26 |  |  |  |  |  |  |  |  |  |
| Cc1ncsc1-c1ccc(CNC(=O)[C@@H]2C[C@@H](O)CN2C(=O)[C@@H](NC(=O)CCCCCOC(=O)CC23CC4CC(CC(C4)C2)C3)C(C)(C)C)cc1 [Compound 12, 6-(((S)-1-((2S,4R)-4-Hydroxy-2-((4-(4-methylthiazol-5-yl)benzyl)carbamoyl)pyrrolidin-1-yl)-3,3-dimethyl-1-oxobutan-2-yl)amino)-6-oxohexyl 2-(adamantan-1-yl)acetate] | 2.4 | 1.8 | 80 ± 11% |  | 4.5 ×10⁻⁶ cm/s |  |  |  |  |  |  |  |  |  |  |
| Cc1ncsc1-c1ccc(CNC(=O)[C@@H]2C[C@@H](O)CN2C(=O)[C@@H](NC(=O)COCCOCCOCCNC(=O)C[C@@H]2N=C(c3ccc(Cl)cc3)c3c(sc(C)c3C)-n3c(C)nnc32)C(C)(C)C)cc1 [Compound 21, MZ1] |  |  |  |  | 1.5 ×10⁻⁶ cm/s |  | 1.46 | 0.73 | 5.3 | 1.73 | 0.45 | 2.8 | 0.62 | 4.2 | PAMPA Pe: 0.01 ×10^–6 cm/s |
